The values that follow come from paper PMC8634379, “From the Design to the In Vivo Evaluation of Benzohomoadamantane-Derived Soluble Epoxide Hydrolase Inhibitors for the Treatment of Acute Pancreatitis” (Journal of Medicinal Chemistry, 2021).

“And” between values parts separate entries of the source, which are not always exact repeats. Identical values can stand only once. Like-named read-outs stand apart in the source and are kept apart here.

One data set addresses T1, murine sEH (Mus musculus, UniProt P34914).
T1 sequence (P34914 1-554): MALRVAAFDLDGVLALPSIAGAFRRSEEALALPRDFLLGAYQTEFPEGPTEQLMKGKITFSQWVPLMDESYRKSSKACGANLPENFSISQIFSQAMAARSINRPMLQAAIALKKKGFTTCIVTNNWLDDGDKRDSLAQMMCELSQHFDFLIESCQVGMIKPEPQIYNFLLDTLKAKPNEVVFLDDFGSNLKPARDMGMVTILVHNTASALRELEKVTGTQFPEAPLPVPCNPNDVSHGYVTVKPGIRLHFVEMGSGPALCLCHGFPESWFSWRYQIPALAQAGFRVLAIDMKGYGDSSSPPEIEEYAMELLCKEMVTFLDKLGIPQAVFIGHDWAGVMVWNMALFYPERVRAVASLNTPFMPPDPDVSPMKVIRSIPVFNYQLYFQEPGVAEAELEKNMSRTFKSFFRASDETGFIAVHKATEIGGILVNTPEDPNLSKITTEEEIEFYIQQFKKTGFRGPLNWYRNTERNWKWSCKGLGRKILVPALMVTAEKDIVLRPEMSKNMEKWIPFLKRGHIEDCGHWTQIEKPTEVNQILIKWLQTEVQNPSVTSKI
Description: sEH inhibition, fluorescent-based assay (CMNPC substrate). The data set is classed as biochemical. To be noted: purified recombinant enzyme, average of three replicates. On the procedure:
(§1) The IC50 values reported herein were determined using a fluorescent-based assay (CMNPC as substrate).[16] The fluorescent assay was used with purified recombinant human, mouse, or rat sEH proteins. The enzymes were incubated at 30 °C with the inhibitors ([I]final = 0.4–100,000 nM) for 5 min in 100 mM sodium phosphate buffer (200 μL, pH 7.4) containing 0.1 mg/mL of BSA and 1% of DMSO. The substrate (CMNPC) was then added ([S]final = 5 μM). […] Results were obtained by regression analysis from a linear region of the curve.

In the next data set the target is T2, rat sEH (Rattus norvegicus, UniProt P80299).
T2 sequence (P80299 1-554): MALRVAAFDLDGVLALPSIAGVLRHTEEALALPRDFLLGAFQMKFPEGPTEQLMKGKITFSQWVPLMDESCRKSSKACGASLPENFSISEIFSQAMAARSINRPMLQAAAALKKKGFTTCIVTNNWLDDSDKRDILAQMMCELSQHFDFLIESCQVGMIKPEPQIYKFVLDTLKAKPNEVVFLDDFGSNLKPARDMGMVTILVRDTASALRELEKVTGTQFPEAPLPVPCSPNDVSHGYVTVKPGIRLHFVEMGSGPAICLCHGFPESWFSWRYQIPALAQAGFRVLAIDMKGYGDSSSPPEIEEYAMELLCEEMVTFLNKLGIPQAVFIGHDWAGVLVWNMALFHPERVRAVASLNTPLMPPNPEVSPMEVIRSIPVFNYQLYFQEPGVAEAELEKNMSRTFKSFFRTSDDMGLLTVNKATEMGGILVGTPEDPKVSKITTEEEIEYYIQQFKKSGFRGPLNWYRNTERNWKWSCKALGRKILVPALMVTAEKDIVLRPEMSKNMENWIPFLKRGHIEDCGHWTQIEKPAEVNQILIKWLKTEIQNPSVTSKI
The data set is described as above. It counts as biochemical. The note with it: purified recombinant enzyme, average of three replicates. On the procedure:
as §1

The next data set deals with T3, human sEH (hsEH) (Homo sapiens, UniProt P34913).
T3 sequence (P34913 1-555): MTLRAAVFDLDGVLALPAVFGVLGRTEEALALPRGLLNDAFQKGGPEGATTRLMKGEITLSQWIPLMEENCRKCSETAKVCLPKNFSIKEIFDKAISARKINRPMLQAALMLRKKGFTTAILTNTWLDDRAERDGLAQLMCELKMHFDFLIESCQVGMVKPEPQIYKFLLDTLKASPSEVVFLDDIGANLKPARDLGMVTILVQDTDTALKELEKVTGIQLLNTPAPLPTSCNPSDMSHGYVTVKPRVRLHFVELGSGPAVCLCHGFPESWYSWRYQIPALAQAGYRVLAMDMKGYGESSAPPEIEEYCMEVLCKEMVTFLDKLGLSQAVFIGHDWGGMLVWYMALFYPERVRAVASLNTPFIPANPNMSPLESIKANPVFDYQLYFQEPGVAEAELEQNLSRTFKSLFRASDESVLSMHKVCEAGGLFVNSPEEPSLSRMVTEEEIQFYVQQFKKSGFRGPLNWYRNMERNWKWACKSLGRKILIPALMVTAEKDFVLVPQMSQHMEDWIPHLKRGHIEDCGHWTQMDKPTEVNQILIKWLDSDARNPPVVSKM
Described as above. The note with it: purified recombinant enzyme, average of three replicates. It counts as biochemical. As for the experimental part:
as §1

The nature of data set [1]: Pharmacokinetic study after IP administration. The note with it: for AUC(0-t) / Cl / Cmax / Tmax / Vd / half-life / AUC(0-inf): ip; for AUC(0-inf): AUCINF. The data set is classed as in vivo, male C57BL/6 mice. As for the experimental part:
During the experimental procedure, animals were identified with a permanent marker (tail code numbers). […] They underwent a period of at least 5 days of observation and acclimatization between the date of arrival and the start of the procedure. […] Diet was analyzed by the manufacturer to detect possible contaminants. Tap water was supplied by CASSA (Servei d’Aigües de Sabadell) and was provided to the animals by bottles ad libitum. […] Ministry of Agriculture, Livestock, and Fishing of the autonomous government of Catalonia, Spain. […] Formulations were prepared on the day of the study. […] Animals were weighed before each administration to adjust the required volume. […] Blood samples (0.5–0.8 mL) were collected from anesthetized animals with isoflurane by cava vein puncture in tubes containing K2-EDTA 5%. Blood samples were centrifuged at 10,000 rpm for 5 min to obtain plasma that was stored at −20 °C until analysis. Analytical measurements were performed by LC–MS/MS. Pharmacokinetics parameters were calculated with Phoenix 64 (WinNonlin).

The next data set addresses CYP 2C9 (Homo sapiens, UniProt P11712). Briefly: Cytochrome P450 inhibition, fluorescence detection. It counts as in vitro ADME. To be noted: at 10 μM.
The mark [2] stands for this setting: male, C57BL/6, mouse, in vivo, 3 mg/kg.

Chain of CYP 2C9 (P11712 whole entry): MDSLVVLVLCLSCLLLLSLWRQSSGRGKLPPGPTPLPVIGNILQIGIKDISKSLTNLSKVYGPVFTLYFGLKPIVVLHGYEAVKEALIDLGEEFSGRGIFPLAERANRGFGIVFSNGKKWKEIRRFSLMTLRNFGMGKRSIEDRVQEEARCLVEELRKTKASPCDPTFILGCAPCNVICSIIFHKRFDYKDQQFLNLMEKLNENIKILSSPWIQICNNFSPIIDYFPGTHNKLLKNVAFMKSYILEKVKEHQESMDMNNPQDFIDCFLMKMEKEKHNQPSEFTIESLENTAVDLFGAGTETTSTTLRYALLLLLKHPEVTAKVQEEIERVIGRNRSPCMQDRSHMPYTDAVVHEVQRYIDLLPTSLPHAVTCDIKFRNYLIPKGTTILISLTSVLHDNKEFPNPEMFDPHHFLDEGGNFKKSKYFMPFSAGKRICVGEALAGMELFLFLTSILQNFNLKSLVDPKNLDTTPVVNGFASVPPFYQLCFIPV

For orientation: IC50 means the midpoint of a concentration-inhibition curve. The AUC(0-t) is the area under the concentration-time curve up to a stated or last time point. The low end stands for low exposure, the high end for high exposure. The term Cmax denotes the maximum level reached in the sampled fluid or tissue. The term Tmax denotes the time at which the peak concentration occurs. As a reminder, the half-life is the time in which the quantity being followed falls by half. One may read the AUC(0-inf) as the area under the concentration-time curve extrapolated to infinity. As for `CC12CC3CC(NC(=O)N[C@H]4CC[C@H](Oc5ccc(C(=O)O)cc5)CC4)(CC(C1)c1ccccc13)C2` [Compound 20, 4-[((1r,4r)-4-(3-(9-Methyl-5,6,8,9,10,11-Hexahydro-7H-5,9:7,11-dimethanobenzo[9]annulen-7-yl)ureido)cyclohexyl)oxy]benzoic Acid], the IC50 at murine sEH worked out at 9900 pM. In addition, the concentration for half-maximal inhibition (IC50) on rat sEH came to 400 pM. The IC50 at human sEH (hsEH) turned out to be 900 pM. In addition, the “Total Concentration in mouse plasma, individual mice” value (from here on “Total Concentration in mouse plasma”) in data set [1] (male, C57BL/6, mouse, in vivo, 24 h) came to 0 ng/mL. In data set [1] (setting [2]), the AUC(0-t) was 2260 ng·h/mL, the Cl is 21.5 mL/min/kg, the concentration peaked (Cmax) at 1610 ng/mL and the Tmax was found to be 0.5 h. In data set [1] (setting [2]), the Vd amounted to 2.18 L/kg, the half-life was 1.17 h and the AUC(0-inf) was 2320 ng·h/mL. For the same compound, the “CYP 2C9 inhibition” value at CYP 2C9 is reported as 17 ± 3%.

For the compound `O=C(NC12CC3CC(Cl)(CC(C1)c1ccccc13)C2)N[C@H]1CC[C@H](Oc2ccc(C(=O)O)cc2)CC1` [Compound 22, 4-[((1r,4r)-4-(3-(9-Chloro-5,6,8,9,10,11-hexahydro-7H-5,9:7,11-dimethanobenzo[9]annulen-7-yl)ureido)cyclohexyl)oxy]benzoic Acid], the “Total Concentration in mouse plasma” value in data set [1] (3 mg/kg ip, 0.25 h (5400 for 20 excluded as outlier)) was 151 ng/mL and 291 ng/mL and 622 ng/mL; in data set [1] (3 mg/kg ip, 0.5 h), 1520 ng/mL and 1980 ng/mL; in data set [1] (3 mg/kg ip, 1 h) it was 1100 ng/mL and 2640 ng/mL and 600 ng/mL; in data set [1] (3 mg/kg ip, 2 h), 2440.0 ng/mL and 2640.0 ng/mL and 5670.0 ng/mL; in data set [1] (3 mg/kg ip, 4 h), 1960.0 ng/mL and 1350.0 ng/mL; in data set [1] (3 mg/kg ip, 6 h), 1160 ng/mL and 734.0 ng/mL and 1530 ng/mL. For the same compound, the “Total Concentration in mouse plasma” value in data set [1] (3 mg/kg ip, 24 h) is 181.0 ng/mL and 40.6 ng/mL and 92.3 ng/mL. Besides, the concentration at 0.25 h in data set [1] (male, C57BL/6, mouse, in vivo, 3 mg/kg, 3 mg/kg ip, 0.25 h, read-out: Mean concentration in mouse plasma) came to 355 ng/mL. In addition, the concentration at 0.5 h in data set [1] (male, C57BL/6, mouse, in vivo, 3 mg/kg, 3 mg/kg ip, 0.5 h, read-out: Mean concentration in mouse plasma) was 1620 ng/mL; in data set [1] (male, C57BL/6, mouse, in vivo, 3 mg/kg, 3 mg/kg ip, 0.5 h, read-out: Total Concentration in mouse plasma, individual mice) it was 1350 ng/mL. In data set [1] (male, C57BL/6, mouse, in vivo, 3 mg/kg, 3 mg/kg ip, 1 h, read-out: Mean concentration in mouse plasma), the concentration at 1 h is 1450 ng/mL. Moreover, the concentration at 2 h in data set [1] (male, C57BL/6, mouse, in vivo, 3 mg/kg, 3 mg/kg ip, 2 h, read-out: Mean concentration in mouse plasma) turned out to be 3580 ng/mL. The concentration at 4 h in data set [1] (male, C57BL/6, mouse, in vivo, 3 mg/kg, 3 mg/kg ip, 4 h, read-out: Mean concentration in mouse plasma) turned out to be 1520 ng/mL; in data set [1] (male, C57BL/6, mouse, in vivo, 3 mg/kg, 3 mg/kg ip, 4 h, read-out: Total Concentration in mouse plasma, individual mice), 1240 ng/mL. Further, the concentration at 6 h in data set [1] (male, C57BL/6, mouse, in vivo, 3 mg/kg, 3 mg/kg ip, 6 h, read-out: Mean concentration in mouse plasma) worked out at 1140 ng/mL. Besides, the concentration at 24 h in data set [1] (male, C57BL/6, mouse, in vivo, 3 mg/kg, 3 mg/kg ip, 24 h, read-out: Mean concentration in mouse plasma) amounted to 105 ng/mL. Moreover, the exposure AUC(0-t) in data set [1] (setting [2]) is 22500 ng·h/mL. The compound further registered a Cl in data set [1] (setting [2]) of 2.17 mL/min/kg. In data set [1] (setting [2]), the peak level (Cmax) was 3580 ng/mL. For the same compound, the Tmax in data set [1] (setting [2]) was found to be 2 h. This compound registered a Vd in data set [1] (setting [2]) of 0.96 L/kg. Moreover, the half-life in data set [1] (setting [2]) is 5.2 h. In addition, in data set [1] (setting [2]), the area under the curve AUC(0-inf) came out at 23300 ng·h/mL. In addition, the “CYP 2C9 inhibition” value at CYP 2C9 is given as 31 ± 3%.

For `O=C(NC12CC3CC(F)(CC(C1)c1ccccc13)C2)N[C@H]1CC[C@H](Oc2ccc(C(=O)O)cc2)CC1` [Compound 23, 4-[((1r,4r)-4-(3-(9-Fluoro-5,6,8,9,10,11-hexahydro-7H-5,9:7,11-dimethanobenzo[9]annulen-7-yl)ureido)cyclohexyl)oxy]benzoic Acid], the 50% inhibitory concentration (IC50) on murine sEH came to 500 pM; on rat sEH, 400 pM; at human sEH (hsEH), 500 pM.
